Results as given in the NIST ThermoML archive (doi:10.1016/j.fluid.2018.07.018).
± gives the expanded uncertainty stated by the source.

Conditions: Crystal; DTA

- Normal melting temperature: 82.00 ± 1.1 °C
Structure (SMILES): CC(C)OC(=O)C(C)(C)Oc1ccc(C(=O)c2ccc(Cl)cc2)cc1 [fenofibrate]
